US9371336B2, “Compounds for treating spinal muscular atrophy” (PTC Therapeutics Inc., priority 2012, dated 2016)

Legend:
[1] = tested on: SMN2 minigene mRNA (SMN2-A minigene construct); assay: SMN2 minigene mRNA splicing RT-qPCR assay in cultured cells; format: cell-based, human; conditions: Homo sapiens, HEK293-H; HEK293H cells stably transfected with SMN2-A minigene, 24 hours, 7-point concentration data; concentration giving 1.5-fold SMN2 full length mRNA relative to vehicle-treated cells; read-out: EC1.5x for production of full length SMN2 mRNA
Procedure, shortened: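 Full-length SMN2 minigene mRNA, measured by exon 7/luciferase-specific RT-qPCR that excludes endogenous SMN1/SMN2, was normalized to GAPDH and expressed relative to vehicle-treated cells via modified ΔΔCt. Stably transfected HEK293H cells received compound (7-point, 3.16-fold series, duplicates) for 24 h at 37 °C.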

[2] = tested on: Smn protein; assay: Smn protein assay (HTRF) in cultured cells (SMA patient fibroblasts GM03813); format: cell-based, human; conditions: 48 hours; for maximum fold (Fold) increase of Smn protein: SMA patient fibroblast cells, 7-point concentration curve, relative to vehicle control; for EC1.5x for Smn protein expression: SMA patient fibroblast cells (GM03813), HTRF, 7-point concentration data, concentration producing 1.5 times Smn protein vs DMSO vehicle control
Procedure, shortened: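 SMA patient fibroblasts (GM03813) were treated 48 h at 37° C with a 7-point, 3.16-fold compound series in triplicate, then lysed in RIPA. Smn was read by HTRF (anti-SMN d2/kryptate, 665/620 nm ratio). ΔF versus blank was divided by vehicle ΔF to give fold Smn increase.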

Compound | EC (1.5-fold) [1] [µM] | maximum fold (Fold) increase of Smn protein [2] | melting point [°C] | EC1.5x for Smn protein expression [2]
CCCN1CCN(c2ccc3cc(-c4nc5c(Cl)cccc5s4)c(=O)oc3n2)CC1 [Cpd 13, 3-(4-chloro-1,3-benzothiazol-2-yl)-7-(4-propylpiperazin-1-yl)-2H-pyrano[2,3-b]pyridin-2-one] | 1 to 3 | *** (a fold increase between >1.35 and ≦1.5 is indicated by three stars (***)) | 251 to 254 | 
Cc1csc(-c2cc3ccc(N4CCNCC4)nc3oc2=O)n1.Cl [Cpd 15, 3-(4-methyl-1,3-thiazol-2-yl)-7-(piperazin-1-yl)-2H-pyrano[2,3-b]pyridin-2-one hydrochloride] | 3 to 30 | ** (a fold increase between >1.2 and ≦1.35 is indicated by two stars (**)) | 238 to 242 | 
Cl.O=c1oc2nc(N3CCNCC3)ccc2cc1-c1nc(C(F)(F)F)cs1 [Cpd 16, 7-(piperazin-1-yl)-3-[4-(trifluoromethyl)-1,3-thiazol-2-yl]-2H-pyrano[2,3-b]pyridin-2-one hydrochloride] | 1 to 3 | * (A maximum fold increase ≦1.2 is indicated by one star (*)) | 274 to 280 | 
CCN1CCN(c2ccc3cc(-c4nc5ccccc5s4)c(=O)oc3n2)CC1 [Cpd 17, 3-(1,3-benzothiazol-2-yl)-7-(4-ethylpiperazin-1-yl)-2H-pyrano[2,3-b]pyridin-2-one] | 0.3 to 1 | *** (a fold increase between >1.35 and ≦1.5 is indicated by three stars (***)) | 254 to 257 | 
CCCN1CCN(c2ccc3cc(-c4nc5ccccc5s4)c(=O)oc3n2)CC1 [Cpd 18, 3-(1,3-benzothiazol-2-yl)-7-(4-propylpiperazin-1-yl)-2H-pyrano[2,3-b]pyridin-2-one] | 1 to 3 | * (A maximum fold increase ≦1.2 is indicated by one star (*)) | 247 to 250 | 
CC(C)N1CCN(c2ccc3cc(-c4nc5ccccc5s4)c(=O)oc3n2)CC1 [Cpd 19, 3-(1,3-benzothiazol-2-yl)-7-[4-(propan-2-yl)piperazin-1-yl]-2H-pyrano[2,3-b]pyridin-2-one] | 0.3 to 1 | ** (a fold increase between >1.2 and ≦1.35 is indicated by two stars (**)) | 241 to 245 | 
CCN1CCN(c2ccc3cc(-c4nc(C)cs4)c(=O)oc3n2)CC1 [Cpd 20, 7-(4-ethylpiperazin-1-yl)-3-(4-methyl-1,3-thiazol-2-yl)-2H-pyrano[2,3-b]pyridin-2-one] | 3 to 30 | * (A maximum fold increase ≦1.2 is indicated by one star (*)) | 228 to 232 | 
CCCN1CCN(c2ccc3cc(-c4nc(C)cs4)c(=O)oc3n2)CC1 [Cpd 21, 3-(4-methyl-1,3-thiazol-2-yl)-7-(4-propylpiperazin-1-yl)-2H-pyrano[2,3-b]pyridin-2-one] | 3 to 30 | * (A maximum fold increase ≦1.2 is indicated by one star (*)) | 210 to 214 | 
O=c1oc2nc(N3CCN(CC(O)CO)CC3)ccc2cc1-c1nc2c(Cl)cccc2s1 (stereo not drawn) [Cpd 22, 3-(4-chloro-1,3-benzothiazol-2-yl)-7-[4-(2,3-dihydroxypropyl)piperazin-1-yl]-2H-pyrano[2,3-b]pyridin-2-one] | 0.3 to 1 | **** (a fold increase between >1.5 and ≦1.65 is indicated by four stars (****)) | 216 to 220 | *** (an EC1.5× between >0.3 μM and ≦1 μM is indicated by three stars (***))
CC(C)N1CCN(c2ccc3cc(-c4nc5c(Cl)cccc5s4)c(=O)oc3n2)CC1 [Cpd 23, 3-(4-chloro-1,3-benzothiazol-2-yl)-7-[4-(propan-2-yl)piperazin-1-yl]-2H-pyrano[2,3-b]pyridin-2-one] | 0.3 to 1 | ** (a fold increase between >1.2 and ≦1.35 is indicated by two stars (**)) | 230 to 234 | 
Cc1ccc2nc(-c3cc4ccc(N5CCNCC5)nc4oc3=O)cn2c1.Cl [Cpd 24, 3-(6-methylimidazo[1,2-a]pyridin-2-yl)-7-(piperazin-1-yl)-2H-pyrano[2,3-b]pyridin-2-one hydrochloride] | 0.3 to 1 | ** (a fold increase between >1.2 and ≦1.35 is indicated by two stars (**)) | 218 to 222 | 
O=c1oc2nc(N3CCN(CCO)CC3)ccc2cc1-c1nc2ccccc2s1 [Cpd 25, 3-(1,3-benzothiazol-2-yl)-7-[4-(2-hydroxyethyl)piperazin-1-yl]-2H-pyrano[2,3-b]pyridin-2-one] | 0.3 to 1 | *** (a fold increase between >1.35 and ≦1.5 is indicated by three stars (***)) | 220 to 224 | 
O=c1oc2nc(N3CCN(CC(O)CO)CC3)ccc2cc1-c1nc2ccccc2s1 (stereo not drawn) [Cpd 26, 3-(1,3-benzothiazol-2-yl)-7-[4-(2,3-dihydroxypropyl)piperazin-1-yl]-2H-pyran [2,3-b]pyridin-2-one] | 1 to 3 | ** (a fold increase between >1.2 and ≦1.35 is indicated by two stars (**)) | 236 to 239 | 
Cc1ccn2cc(-c3cc4ccc(N5CCNCC5)nc4oc3=O)nc2c1.Cl [Cpd 29, 3-(7-methylimidazo[1,2-a]pyridin-2-yl)-7-(piperazin-1-yl)-2H-pyrano[2,3-b]pyridin-2-one hydrochloride] | ≤ 0.1 | *** (a fold increase between >1.35 and ≦1.5 is indicated by three stars (***)) | 240 to 244 | 
Cl.O=c1oc2nc(N3CCCNCC3)ccc2cc1-c1cn2cccnc2n1 [Cpd 30, 7-(1,4-diazepan-1-yl)-3-(imidazo[1,2-a]pyrimidin-2-yl)-2H-pyrano[2,3-b]pyridin-2-one hydrochloride] | 0.1 to 0.3 | *** (a fold increase between >1.35 and ≦1.5 is indicated by three stars (***)) | 250 to 252 | ** (an EC1.5× between >1 and ≦3 μM is indicated by two stars (**))
Cl.O=c1oc2nc(N3CCCNCC3)ccc2cc1-c1nc2c(Cl)cccc2s1 [Cpd 31, 3-(4-chloro-1,3-benzothiazol-2-yl)-7-(1,4-diazepan-1-yl)-2H-pyrano[2,3-b]pyridin-2-one hydrochloride] | 0.1 to 0.3 | ** (a fold increase between >1.2 and ≦1.35 is indicated by two stars (**)) | 271 to 273 | 
Cl.O=c1oc2nc(N3CCCNCC3)ccc2cc1-c1cn2ccsc2n1 [Cpd 32, 7-(1,4-diazepan-1-yl)-3-(imidazo[2,1-b][1,3]thiazol-6-yl)-2H-pyrano[2,3-b]pyridin-2-one hydrochloride] | ≤ 0.1 | *** (a fold increase between >1.35 and ≦1.5 is indicated by three stars (***)) | 267 to 269 | 
Cc1ccc2nc(-c3cc4cnc(N5CCN(C)CC5)cc4oc3=O)cn2c1 [Cpd 34, 3-(6-methylimidazo[1,2-a]pyridin-2-yl)-7-(4-methylpiperazin-1-yl)-2H-pyrano[3,2-c]pyridin-2-one] | 1 to 3 | *** (a fold increase between >1.35 and ≦1.5 is indicated by three stars (***)) | 264 to 268 | 
CN1CCCN(c2ccc3cc(-c4cn5cccnc5n4)c(=O)oc3n2)CC1 [Cpd 36, 3-(imidazo[1,2-a]pyrimidin-2-yl)-7-(4-methyl-1,4-diazepan-1-yl)-2H-pyrano[2,3-b]pyridin-2-one] | 0.3 to 1 | **** (a fold increase between >1.5 and ≦1.65 is indicated by four stars (****)) | 232 to 234 | ** (an EC1.5× between >1 and ≦3 μM is indicated by two stars (**))
CN1CCCN(c2ccc3cc(-c4nc5c(Cl)cccc5s4)c(=O)oc3n2)CC1 [Cpd 37, 3-(4-chloro-1,3-benzothiazol-2-yl)-7-(4-methyl-1,4-diazepan-1-yl)-2H-pyrano[2,3-b]pyridin-2-one] | ≤ 0.1 | *** (a fold increase between >1.35 and ≦1.5 is indicated by three stars (***)) | 263 to 265 | ** (an EC1.5× between >1 and ≦3 μM is indicated by two stars (**))
CN1CCN(c2ccc3cc(-c4cn5ccccc5n4)c(=O)oc3n2)CC1 [Cpd 38, 3-(imidazo[1,2-a]pyridin-2-yl)-7-(4-methylpiperazin-1-yl)-2H-pyrano[2,3-b]pyridin-2-one] | 0.1 to 0.3 | ***** (a fold increase >1.65 is indicated by five stars (*****)) | 243 to 246 | *** (an EC1.5× between >0.3 μM and ≦1 μM is indicated by three stars (***))
Cc1ccn2cc(-c3cc4ccc(N5CCN(C)CC5)nc4oc3=O)nc2c1 [Cpd 39, 3-(7-methylimidazo[1,2-a]pyridin-2-yl)-7-(4-methylpiperazin-1-yl)-2H-pyrano[2,3-b]pyridin-2-one] | ≤ 0.1 | **** (a fold increase between >1.5 and ≦1.65 is indicated by four stars (****)) | 264 to 268 | **** (an EC1.5×≦0.3 μM is indicated by four stars (****))
